Assay results from patent publication EP0880540B1, “17-BETA-CYCLOPROPYL(AMINO/OXY) 4-AZA STEROIDS AS ACTIVE INHIBITORS OF TESTOSTERONE 5-ALPHA-REDUCTASE AND C17-20-LYASE” (Aventis Pharmaceuticals Inc., priority 1996, dated 1997).

Tests used:
[1] = target: T1, cynomolgus monkey prostatic 5α-reductase (Macaca fascicularis, UniProt Q28892); assay: In vitro 5α-reductase assay, prostate microsomes; assay type: biochemical; settings: mean of duplicates
T1 construct: microsomal preparations of the 5α-reductase enzyme from laboratory animal prostate tissue; from tissue; host or cells: cynomolgus monkey prostate, microsomes
T1 sequence (Q28892 1-254): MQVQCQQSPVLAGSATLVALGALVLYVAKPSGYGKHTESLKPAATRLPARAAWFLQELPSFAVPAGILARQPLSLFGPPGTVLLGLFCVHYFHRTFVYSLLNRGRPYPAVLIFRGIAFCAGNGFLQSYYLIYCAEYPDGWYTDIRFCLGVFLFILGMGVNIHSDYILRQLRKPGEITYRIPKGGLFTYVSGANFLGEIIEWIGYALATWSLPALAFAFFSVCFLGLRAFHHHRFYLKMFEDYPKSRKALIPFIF
Procedure: In vitro 5α-reductase assays: The activity of the present compounds as inhibitors of steroid 5α-reductase was determined using microsomal preparations of the 5α-reductase enzyme from laboratory animal prostate tissue. Specifically, microsomes were isolated from cynomolgus monkey prostate tissue. Protein concentration of the microsomal preparations was determined prior to use of the samples. Individual assays of cynomolgus monkey prostatic 5α-reductase activity contained 0.1 M potassium phosphate-sodium citrate buffer, pH 5.6 1.0% (w/v) bovine serum albumin, […] sodium EDTA, 4 µg of microsomal protein, 1.0 mM NADPH, 5.0 mM glucose-6-phosphate, 1 IU/mL glucose-6-phosphate dehydrogenase, [1,2-^3H]-testosterone (0.15 µCi) plus unlabeled testosterone to yield 0.015 µM (Km = 0.015 µM to 0.091 µM in multiple determinations), and test compound which was dissolved in DMSO then diluted in 0.1 M potassium phosphate-sodium citrate buffer, pH 5.6, to yield a final assay concentration of 0.1% (v/v) DMSO. The same buffer and DMSO without test compound were used in control assays. Background radioactivity was determined from assays containing all components except enzyme. Assays were performed in duplicate. Microsomes, 0.1 M potassium phosphate-sodium citrate buffer, pH 5.6, and test compound were preincubated at 37°C. Aliquots of 180 µL were removed after 0 or 40 minutes of preincubation and added to […] of testosterone substrate suspended in 0.1 M potassium phosphate-sodium citrate buffer, pH 5.6, containing 10% (v/v) DMSO. Remaining enzyme activity was assayed for 10 minutes at 37°C in a Dubnoff shaker incubator.
The reactions were terminated by the addition of 5 mL CHCl3:methanol (2:1) and 0.9 mL water. Carrier steroids were added in the form of 2.5 µg each of testosterone, dihydrotestosterone, and 3,17-androstanediol. Steroid metabolites were then extracted according to the procedure of Moore and Wilson (Methods in Enzymol., O'Malley, B.W. and Hardman, J.G. eds., 36, 1975, pp. 466-474), the organic phase containing the steroids was evaporated using nitrogen gas, the residues were dissolved in 3% (v/v) isopropanol in hexane. The steroids were then separated by normal phase HPLC on a LiCrosorb® DIOL derivatized silica gel column (10 µm; 4 x 250 mm) with a 3% to 7.5% isopropanol in hexane gradient, followed by isocratic conditions of […] isopropanol in hexane. Radioactivity in the steroid peaks was measured using a Packard Radiomatic model HS Flo-One detector. When the compound were tested using the above procedures with cynomolgus monkey 5α-reductase, the following results were obtained: Table 2: […]

[2] = target: T2, cynomolgus monkey C17,20 lyase (Macaca fascicularis, UniProt Q2XVA1); assay: In vitro C17,20 lyase assay, testicular microsomes; assay type: biochemical; settings: mean of duplicates
T2 construct: microsomal preparations of the enzyme from testicular tissue; from tissue; host or cells: cynomolgus monkey testes, microsomes
T2 sequence (Q2XVA1 1-508): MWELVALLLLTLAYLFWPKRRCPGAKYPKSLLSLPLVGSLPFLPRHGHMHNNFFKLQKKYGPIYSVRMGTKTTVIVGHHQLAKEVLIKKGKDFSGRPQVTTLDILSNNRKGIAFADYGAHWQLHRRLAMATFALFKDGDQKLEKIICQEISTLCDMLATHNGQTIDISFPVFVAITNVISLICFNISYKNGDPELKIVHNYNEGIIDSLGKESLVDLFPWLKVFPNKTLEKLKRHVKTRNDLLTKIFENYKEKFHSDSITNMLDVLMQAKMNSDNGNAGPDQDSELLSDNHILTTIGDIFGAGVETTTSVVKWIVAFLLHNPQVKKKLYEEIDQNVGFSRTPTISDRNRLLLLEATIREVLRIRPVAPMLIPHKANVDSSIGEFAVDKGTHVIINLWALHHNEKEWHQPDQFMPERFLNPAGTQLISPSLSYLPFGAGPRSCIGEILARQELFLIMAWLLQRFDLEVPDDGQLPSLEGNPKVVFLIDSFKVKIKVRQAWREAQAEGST
Procedure: In vitro C17,20 lyase assays: Compounds were tested for inhibition of cynomolgus monkey C17,20 lyase in vitro using microsomal preparations of the enzyme from testicular tissue. Testes were removed from anesthetized animals and flash frozen in liquid nitrogen. Microsomes were isolated as described in Schatzman et al., Anal. Biochem. 175, 219-226 (1988). The compound to be tested was dissolved in dimethyl sulfoxide and diluted in 0.05 M potassium phosphate buffer, pH 7.4, to give the desired concentrations of test compound, in an amount which contributed 0.1% v/v DMSO to the total assay volume. Assays contained 0.05 M potassium phosphate buffer, pH 7.4, an NADPH regenerating system (1 mM NADPH, 5 mM glucose-6-phosphate, 1 IU/mL glucose-6-phosphate dehydrogenase), test compound, substrate and microsomal protein in a total volume of 0.2 mL. Control assays contained all components, including dimethyl sulfoxide, but not test ccmpound. All assays were performed in duplicate. The test compound was incubated with 20 to 62 µg/mL microsomal protein, buffer, and the NADPH regenerating system described above at 34°C for 0 or 40 minutes. Aliquots of 180 µL were then removed and assayed for enzyme activity by addition to 7-[^3H]-17α-hydroxypregnenolone (11.2 mCi/mmole; 0.2 µCi per assay) plus unlabeled 17α-hydroxypregnenolone dissolved in DMSO, contributing 2.5% v/v to the final assay mix, and phosphate buffer to give a total substrate concentration of 0.05 µM (=Km) per assay and subsequent incubation at 34°C for 6 minutes. Each assay was terminated by addition of 5 mL of chloroform:methanol (2:1). Carrier steroids representing substrates and produces (17α-hydroxypregnenolone, dehydroepiandrosterone, and androst-5-ene-3β,17β-diol) and 0.8 mL of distilled, deionized water were also added at this time. The steroids were extracted by the method of Moore and Wilson (Methods in Enzymol., eds. O. Malley, B.W. and Hardman, J.G. 36, 1975, pp. 466-474). The organic phase containing the steroids was evaporated using nitrogen gas, the residues dissolved in 18% tetrahydrofuran (v/v) in hexane, and the steroids were separated by HPLC on a Si60 (5 µm) column (250 x 4 mm) using a gradient of 18-22% tetrahydrofuran (v/v) in hexane. Radioactivity in the steroid peaks was measured using a Radiomatic® Model ES or Model A515 Flo-One® detector.
The enzyme activity for each assay was calculated from the percent conversion of substrate to products, and the results were expressed as percent inhibition of control. The following results were obtained, wherein the values indicated are the mean of duplicate determinations: Table 1: […]

Question: What does the source list for C[C@]12CC[C@H]3[C@@H](CC=C4NC(=O)CC[C@@]43C)[C@@H]1CC[C@@H]2OC1CC1 (stereo in doubt) [MDL 103,496, 17β-Cyclopropyloxy-4-aza-androst-5-en-3-one]?
Answer: inhibition at 0.1 µM ([1]; preincubation 0 min): 24.6%; inhibition at 0.1 µM ([1]; preincubation 40 min): 29.5%; inhibition at 1 µM ([1]; preincubation 0 min): 86.2%; inhibition at 1 µM ([1]; preincubation 40 min): 86.7%; inhibition at 10 µM ([1]; preincubation 0 min): 99.6%; inhibition at 10 µM ([1]; preincubation 40 min): 99.4%; inhibition at 0.1 µM ([2]; preincubation 0 min): 5%; inhibition at 0.1 µM ([2]; preincubation 40 min): 26.6%; inhibition at 1 µM ([2]; preincubation 0 min): 29%; inhibition at 1 µM ([2]; preincubation 40 min): 62.2%; inhibition at 10 µM ([2]; preincubation 0 min): 39.2%; inhibition at 10 µM ([2]; preincubation 40 min): 87.7%
